Laboratory results as given in patent US20240109934A1, “ANTIBIOTICS WITH IMPROVED DRUG RESISTANCE PROFILE” (priority 2021, published 2024).
Values after ≈ are worked out from the molar mass of the structure shown. “Also recorded” adds a separate entry of the source. Where two headings read alike, the source gives them in different places.

Tests used:
[1] = test system: S. aureus ATCC 29213; assay: MIC by micro-dilution broth method (CLSI); format: cell-based; conditions: for MIC: Staphylococcus aureus
[2] = test system: S. aureus ATCC 29213; assay: Neutropenic thigh infection burden study, sensitive strain; format: in vivo; conditions: neutropenic CD-1 mice, 50 mg/kg IP at 1, 2, 3 h post infection, burden at 24 h
[3] = test system: S. aureus (FA-32×-B); assay: Neutropenic thigh infection burden study, FA-resistant strain; format: in vivo; conditions: neutropenic CD-1 mice, FA-resistant strain (P406L), 50 mg/kg IP at 1, 2, 3 h, burden at 8 h
[4] = test system: multidrug-resistant clinical isolates of E. faecium; assay: MIC against multidrug-resistant clinical isolates of E. faecium; format: cell-based; conditions: for Cross-resistance with vancomycin: E. faecium clinical isolates; for MIC: Enterococcus faecium
[5] = Pharmacokinetic assessment in mice; format: in vivo, C57BL/6 mice
Protocol: FIG. 3. A). Pharmacokinetic analysis of fusidic acid and FA-CP. […] The data are illustrated as the mean and represent the average of three independent experiments. The pharmacokinetic parameters illustrated above were calculated with a one-compartment model using a non-linear regression program (Phoenix WinNonlin Version 8.1, Certara USA Inc. Princeton NJ 08540 USA). B). S. aureus ATCC 29213 neutropenic thigh infection burden study. CD-1 mice were first rendered neutropenic with cyclophosphamide. Mice were injected on (Day-4 to Day-2) with 150 mg/kg and on (Day-1) with 100 mg/kg of cyclophosphamide, respectively. […] C). S. aureus (FA-32×-B) neutropenic thigh infection study. CD-1 mice were first rendered neutropenic with cyclophosphamide as described above. […] Drugs were formulated with 5% DMSO, 10% Tween 20, 85% PBS immediately before injection. The data shown as means±s.d. and statistical significance was determined by one-way ANOVA with Tukey's multiple comparisons. NS indicates not significant (P>0.05), **P<0.01, ****P<0.0001.
Pharmacokinetic Assessment of sodium fusidate and FA-CP (25). […] The compounds were formulated in 5% DMSO, 10% Tween 20, and 85% PBS. Mice were treated with sodium fusidate or FA-CP (25) (50 mg/kg) via intraperitoneal injection with three mice per time point (15, 30, 45, 60, 120, and 240 min). At specific time points, mice were sacrificed, blood was collected and centrifuged, and the serum was frozen at −80° C. until analysis. The proteins in a 10 μL aliquot of serum were precipitated by the addition of 50 μL acetonitrile with the addition of 10 μL of 1.6 ug/mL internal standard (sodium fusidate was the internal standard when measuring FA-CP (25) and FA-CP (25) was the internal standard when measuring sodium fusidate). The sample was then vortexed and centrifuged to remove the proteins. Supernatants were analyzed with the QTRAP 5500 LC/MS/MS system (Sciex) in the Metabolomics Laboratory of the Roy J. Carver Biotechnology center, University of Illinois at Urbana-Champaign. Software Analyst 1.6.2 was used for data acquisition and analysis. The 1200 Series HPLC System (Agilent Technologies) includes a degasser, an autosampler and a binary pump. The liquid chromatography separation was performed on an Agilent Zorbax SB-Aq column (4.6 mm×50 mm; 5 μm) with mobile phase A (0.1% formic acid in water) and mobile phase B (0.1% formic acid in acetonitrile). The flow rate was 0.3 mL/min. The linear gradient was as follows: 0-1 min: 95% A; 8-13 min: 0% A; 8.1-18.5 min: 95% A. The autosampler was set at 10° C. The injection volume was 5 μL. Mass spectra were acquired under negative electrospray ionization with a voltage of −4,500 V. The source temperature was 450° C. The curtain gas, ion source gas 1 and ion source gas 2 were 32, 60 and 60 psi, respectively. […] The limit of quantitation of (S/N=10) was 1 nM. Pharmacokinetic parameters were calculated with a one-compartment model using a nonlinear regression program (Phoenix WinNonlin Version 8.1; Certara USA).

[6] = test system: FA-Resistant strains of S. aureus; assay: MIC against 11 FA-resistant strains generated at 4x-32x the MIC; format: cell-based
Protocol: Antimicrobial Susceptibility Tests. Susceptibility testing was performed in biological triplicate, using the micro-dilution broth method as outlined by the Clinical and Laboratory Standards Institute. Bacteria were cultured with cation-adjusted Muller-Hinton broth (Sigma-Aldrich, Cat #90922) in round-bottom 96-well plates (Corning, Cat #3788). Human serum (Ultrafiltrate, unspecified gender, 30K Dalton membrane filtered) was purchased from BioIVT (Hicksville, NY).
Selection of Resistant Mutants. Resistant mutants were selected via the large inoculum method. Briefly, S. aureus ATCC 29213 (1×10^9 CFU) were plated on 100 mm plates of LB agar containing 4, 2, 1, 0.5, and 0.25 μg/mL.
Sequencing of fusA. FusA was amplified by colony PCR. Colonies were picked and diluted in 100 μL sterile H2O. PCR reactions are setup by combining MiFi Mix (Bioline, London, UK), 20 μM primer mix [fusA-F2, fusA_seq1, Forward EF-G2, and Reverse EF-G](S. aureus ATCC 29213), template DNA, and H2O. Reactions were performed on C1000 Thermal Cycler (Bio-Rad, Hercules, CA) with the following conditions: 5 minutes denaturation at 95° C., followed by 30 cycles of 20 seconds at 95° C., 20 seconds at 50° C., and either 1 minute (fusA1) or 1.5 minutes (fusA2) at 72° C. A 10 μL portion of the PCR reaction mixture was analyzed by agarose gel to confirm the product. PCR reactions were purified using GeneJET PCR Purification Kit (Thermo Scientific). PCR amplicons were submitted to the Core DNA Sequencing Facility at the University of Illinois at Urbana-Champaign for Sanger sequencing with the following primers to sequence the fusA [fusA2, fusA_seq1, Forward EF-G2, Forward EF-G3, Forward EF-G4]

[7] = mice, 50 mg/kg intraperitoneal, serum, one-compartment model
[8] = Staphylococcus aureus, strain FA-4X-A, EF-G T385N
[9] = Staphylococcus aureus, strain FA-4X-B, EF-G T385N
[10] = Staphylococcus aureus, strain FA-8X-A, EF-G T385N
[11] = Staphylococcus aureus, strain FA-8X-B, EF-G R464L
[12] = Staphylococcus aureus, strain FA-16X-A, EF-G H457Y
[13] = Staphylococcus aureus, strain FA-32X-B, EF-G P406L
[14] = Staphylococcus aureus, strain FA-32X-D, EF-G T436I
[15] = female, C57BL/6, mouse, in vivo, ip, 50 mg/kg

## CC(=O)O[C@H]1C[C@@]2(C)[C@@H](C[C@@H](O)[C@H]3[C@@]4(C)CC[C@@H](O)[C@@H](C)[C@@H]4CC[C@@]32C)/C1=C(\CCC=C(C)C)C(=O)O [FA, Fusidic acid]
[1]; ATCC29213, WT S. aureus ATCC 29213, n = 3, read-out: MIC Without Human Serum
  MIC: 0.125 µg/mL (≈ 0.242 µM)
[2]
  Bacterial burden in thigh: Significant reductions in bacterial burden
[3]
  Bacterial burden in thigh: no efficacy
[4]
  Cross-resistance with vancomycin: no cross-resistance with vancomycin
[4]; E. faecium AR0572 (CDC), read-out: MIC
  MIC: 4 µg/mL (≈ 7.74 µM)
[4]; E. faecium AR0574 (CDC), read-out: MIC
  MIC: 2 µg/mL (≈ 3.87 µM)
[4]; E. faecium AR0575 (CDC), read-out: MIC
  MIC: 2 µg/mL (≈ 3.87 µM)
[4]; E. faecium AR0576 (CDC), read-out: MIC
  MIC: 4 µg/mL (≈ 7.74 µM)
[4]; E. faecium AR0578 (CDC), read-out: MIC
  MIC: 2 µg/mL (≈ 3.87 µM)
[4]; E. faecium AR0579 (CDC), read-out: MIC
  MIC: 1 µg/mL (≈ 1.94 µM)
[5]; female, C57BL/6, mouse, in vivo, ip, mice, 50 mg/kg intraperitoneal, serum, one-compartment model, read-out: AUC (converted)
  AUC: 9360 ng·h/mL
[5]; female, C57BL/6, mouse, in vivo, ip, mice, 50 mg/kg intraperitoneal, serum, one-compartment model, read-out: Cmax
  Cmax: 11100 ng/mL
[5]; female, C57BL/6, mouse, in vivo, ip, mice, 50 mg/kg intraperitoneal, serum, one-compartment model, read-out: Tmax (converted)
  Tmax: 5.4 min
[5]; [7]
  CL_F: 89.0 mL/min/kg
  K10_HL: 31.2 min
[6]; [8]
  MIC: 8 µg/mL (≈ 15.5 µM)
[6]; [9]
  MIC: 8 µg/mL (≈ 15.5 µM)
[6]; [10]
  MIC: 8 µg/mL (≈ 15.5 µM)
[6]; [11]
  MIC: 16 µg/mL (≈ 31 µM)
[6]; [12]
  MIC: 128 µg/mL (≈ 248 µM)
[6]; [13]
  MIC: 32 µg/mL (≈ 61.9 µM)
[6]; [14]
  MIC: 8 µg/mL (≈ 15.5 µM)
[6]; strain FA-32×-B
  MIC: 32 µg/mL (≈ 61.9 µM)

## CC(=O)O[C@H]1C[C@@]2(C)[C@@H](C[C@@H](O)[C@H]3[C@@]4(C)CC[C@@H](O)[C@@H](C)[C@@H]4CC[C@@]32C)/C1=C(\CCC=C1CCCC1)C(=O)O [FA-CP, (Z)-2-((3R,4S,5S,8S,9S,10S,11R,13R,14S,16S)-16-acetoxy-3,11-dihydroxy-4,8,10,14-tetramethylhexadecahydro-17H-cyclopenta[a]phenanthren-17-ylidene)-5-cyclopentylidenepentanoic acid]
[1]; S. aureus ATCC 29213 MIC
  Antibacterial activity relative to FA: equipotent activity to FA
[1]; ATCC29213, read-out: MIC Without Human Serum
  MIC: 0.125 µg/mL (≈ 0.23 µM)
[2]
  Bacterial burden in thigh: Significant reductions in bacterial burden
[3]
  Bacterial burden in thigh: reductions in bacterial burden; also recorded: in vivo efficacy
[4]
  Cross-resistance with vancomycin: no cross-resistance with vancomycin
[4]; E. faecium AR0572 (CDC)
  MIC: 4 µg/mL (≈ 7.37 µM)
[4]; E. faecium AR0574 (CDC)
  MIC: 2 µg/mL (≈ 3.68 µM)
[4]; E. faecium AR0575 (CDC)
  MIC: 2 µg/mL (≈ 3.68 µM)
[4]; E. faecium AR0576 (CDC)
  MIC: 4 µg/mL (≈ 7.37 µM)
[4]; E. faecium AR0578 (CDC)
  MIC: 2 µg/mL (≈ 3.68 µM)
[4]; E. faecium AR0579 (CDC)
  MIC: 1 µg/mL (≈ 1.84 µM)
[5]; [15]
  AUC: 11700 ng·h/mL
  CL_F: 71.3 mL/min/kg
  Cmax: 9760 ng/mL
  K10_HL: 19.0 min
  Tmax: 26.4 min
[6]; [8]
  MIC: 2 µg/mL (≈ 3.68 µM)
[6]; [9]
  MIC: 2 µg/mL (≈ 3.68 µM)
[6]; [10]
  MIC: 2 µg/mL (≈ 3.68 µM)
[6]; [11]
  MIC: 8 µg/mL (≈ 14.7 µM)
[6]; [12]
  MIC: 64 µg/mL (≈ 118 µM)
[6]; Staphylococcus aureus, strain FA-32X-A, EF-G F88L
  MIC: 128 µg/mL (≈ 236 µM)
[6]; [13]
  MIC: 4 µg/mL (≈ 7.37 µM)
[6]; Staphylococcus aureus, strain FA-32X-C, EF-G H457L
  MIC: 128 µg/mL (≈ 236 µM)
[6]; [14]
  MIC: 2 µg/mL (≈ 3.68 µM)
[6]; Staphylococcus aureus, strain FA-32X-E, EF-G H457N
  MIC: 128 µg/mL (≈ 236 µM)
[6]; Staphylococcus aureus, strain FA-32X-F, EF-G D434N
  MIC: 32 µg/mL (≈ 59 µM)
[6]; eleven FA-resistant S. aureus strains
  Fold improvement in activity against FA-resistant strains relative to FA: 2-8 fold
